Experimental findings from patent US20250223300A1, “MACROCYCLIC COMPOUND AND PHARMACEUTICAL COMPOSITION AND USE THEREOF” (BETTA PHARMACEUTICALS CO., LTD, priority 2022, published 2025) are described below.

By Cmax is commonly meant the peak of the concentration-time curve. The term IC50 denotes the midpoint of a concentration-inhibition curve. Higher therefore signals lower potency. As usually defined, the AUC(0-t) is exposure summed from dosing to a finite time, without extrapolation to infinity. A high value points to more exposure. One may read the half-life as the time in which the quantity being followed falls by half. High values mean slow decline, low ones rapid decline.

Series [1] in a line: Pharmacokinetics in mice. Format: in vivo, mouse. The note with it: female BALB/c mice, 5 mg/kg orally by gavage, plasma. How it is done:
Mouse PK studies were performed using female BALB/c mice (20-30 g). Compounds were prepared and prepared immediately before use. Mice were administered intravenously or orally by gavage. Blood was collected from the mouse orbital venous plexus, and 100 μL of whole blood was transferred to a K2-EDTA tube at each time point.
1 mg/kg was given intravenously, and whole blood was collected at 0.083, 0.25, 0.5, 1, 2, 4, 6 and 24 h after administration; 5 mg/kg were given orally by gavage, and whole blood was collected at 0.25, 0.5, 1, 2, 4, 6, 24 h after administration in different batches, or the mice were killed at 2, 4 and 6 h to obtain brains. Whole blood samples were centrifuged and plasma was separated; brain tissue samples were homogenized by adding 4 times the volume of buffer, and the plasma and brain tissue samples were stored in a −80° C. refrigerator for later use. After the above plasma and brain tissue samples were precipitated with acetonitrile for protein, the supernatant was taken and mixed with water in a 1:1 ratio, and 10 μL was taken for LC-MS/MS detection.

The target of series [2] is Ba/F3 cells overexpressing EGFR Del19/T790M/C797S (Homo sapiens, UniProt P00533, T790M/C797S, cells depend on it, form not given). The series can be described thus: Cell proliferation inhibitory activity assay, Ba/F3 EGFR Del19/T790M/C797S. It is filed as cell-based. The note with it: cell proliferation inhibition, 72 hours, luminescence; read-out: Ba/F3 cells overexpressing different EGFR mutations IC50 (nM) Del19/T790M/C797S. How it is done: (§1) Suspension cells Ba/F3 (EGFR. Dell9/T790M/C797S), Ba/F3 (EGFR L858R/T790M/C797S), Ba/F3 (EGFR Del19/C797S), and Ba/F3 (EGFR L858R/C797S) overexpressing different EGFR mutations were cultured in PRMI 1640 containing 10% FBS and 1% PS, and adherent cells A431 carrying EGFR WT were cultured in DMEM containing 10% FBS and 1% PS. The experimental steps for compound activity detection are as follows: • (1) Take adherent cells in the logarithmic growth phase, digest them with trypsin count them, and then inoculate them into a 96-well plate at a certain density. Incubate them overnight at 37° C. and 5% CO2 to allow them to adhere.
(§2) Y=minimum+([…])/(1+10^((Log IC50−X)*slope)); • X: logarithm of compound concentration; Y: cell survival inhibition rate.

Series [3] has as its target Ba/F3 (EGFR L858R/T790M/C797S) (Homo sapiens, UniProt P00533, T790M/C797S/L858R, cells depend on it). Briefly: Cell proliferation inhibitory activity assay, Ba/F3 EGFR L858R/T790M/C797S. It is filed as cell-based. As to conditions: cell proliferation inhibition, 72 hours, luminescence; read-out: Ba/F3 cells overexpressing different EGFR mutations IC50 (nM) L858R/T790M/C797S. The method, then:
as §1, §2

The target in series [4] is Ba/F3 (EGFR Del19/C797S) (Homo sapiens, UniProt P00533, C797S, cells depend on it, form not given). The series can be described thus: Cell proliferation inhibitory activity assay, Ba/F3 EGFR Del19/C797S. As to conditions: cell proliferation inhibition, 72 hours, luminescence; read-out: Ba/F3 cells overexpressing different EGFR mutations IC50 (nM) Del19/C797S. It is filed as cell-based. The method, then: as §1, §2

Series [5] can be described thus: Pharmacokinetics in rats. Format: in vivo, rat. As to conditions: male SD rats, 5 mg/kg orally by gavage, plasma. The method, then: Male SD rats (200-300 g) were used for rat PK studies. Compounds were prepared and prepared immediately before use. Rats were administered intravenously or orally by gavage. Blood was collected from the rats through the orbital venous plexus, and 100 μL whole blood was collected into K2-EDTA tubes at each time point.
1 mg/kg was given intravenously, and whole blood was collected at 0.083, 0,25, $0.5, 1, 2, 4, 7, 24, 48, and 72 h after administration; 5 mg/kg were given orally by gavage, and whole blood was collected at 0.25, 0.5, 1, 2, 4, 7, 24, 48, and 72 h after administration in different batches, or the rats were killed at 4 and 24 h to obtain brains. The brain tissue samples were homogenized by adding 4 times the volume of buffer, and the whole blood and brain tissue samples were stored in a −80° C. refrigerator for later use. After the above whole blood and brain tissue samples were precipitated with acetonitrile for protein, the supernatant was taken and mixed with water in a ratio of 1:2, and 10 μL was taken for LC-MS/MS detection.

Series [6] concerns A431 cell carrying EGFR WT. Briefly: Cell proliferation inhibitory activity assay, A431. It is filed as cell-based. The note with it: cell proliferation inhibition, 72 hours, luminescence. The method, then: as §1, §2
Series [7] has as its target Ba/F3 (EGFR L858R/C797S) (Homo sapiens, UniProt P00533, C797S/L858R, cells depend on it). The series can be described thus: Cell proliferation inhibitory activity assay, Ba/F3 EGFR L858R/C797S. Format: cell-based. The note with it: cell proliferation inhibition, 72 hours, luminescence; read-out: Ba/F3 cells overexpressing different EGFR mutations IC50 (nM) L858R/C797S. How it is done: as §1, §2

For the compound “5^6-(9-((2R,6S)-2,6- dimethyl- tetrahydro-2H- pyran-4-yl)-3,9- diazaspiro[5.5] undecan-3-yl)- 2^6-methyl-5^1H- 11-oxa-4-aza- 5(2,1)-benzo [d]imidazola- 1(3,4),2(2,4)- dipyridinacyclo- undecaphan- 3-one [Example 91]”, the “AUClast” value stood at 1495 ng·h/mL in series [1] and 1611 ng·h/mL in series [5]. Also, the “Cmax” value in series [1] came out at 41.9 ng/mL; in series [5], 42.5 ng/mL. Further, the GI50 is 1.7 nM in series [2], 3.4 nM in series [3], 0.64 nM in series [4] and 5.2 nM in series [7]. Also, the “T1/2” value in series [5] came to 26.4 h. This compound also yielded an IC50 in series [6] of 759 nM.
The compound `CO[C@@H]1CCC(N2CCC3(CCN(c4ccc5nc6n(c5c4)CCCCCOc4ccncc4-c4cc(cc(C)n4)C(=O)N6)CC3)CC2)C[C@@H]1F` (stereo partly drawn) [Example 15, 5^6-(9-((3S,4R)-3-fluoro-4-methoxypiperidin-1-yl)-3-azaspiro[5.5]undecan-3-yl)-2^6-methyl-5^1H-11-oxa-4-aza-5(2,1)-benzo[d]imidazola-1(3,4),2(2,4) -dipyridinacycloundecaphan-3-one] came in with an exposure AUC(0-t) in series [5] (rat, po) of 3390 ng·h/mL. Besides, the Cmax in series [5] (rat, po, read-out: Cmax) stood at 104 ng/mL.
On to `Cc1cc2cc(n1)-c1cnccc1OCCCCCn1c(nc3ccc(N4CCC5(CC4)CCN(C4COC4)CC5)cc31)NC2=O` [Example 52, 2^6-methyl-5^6-(9-(oxetan-3-yl)-3,9-diazaspiro [5.5]undecan-3-yl)-5^1H-11-oxa-4-aza-5(2,1)-benzo[d] imidazola-1(3,4),2(2,4)-dipyridinacyclo-undecaphan-3-one], for which the AUC(0-t) in series [1] (mouse, po) is 3460 ng·h/mL; in series [5] (rat, po) it was 917 ng·h/mL. In addition, the half-life in series [1] (mouse, po) was 20.1 h; in series [5] (rat, po), 12.4 h. Also, the Cmax is 215 ng/mL in series [1] (mouse, po, read-out: Cmax) and 57.5 ng/mL in series [5] (rat, po, read-out: Cmax). Also, the GI50 in series [2] was 0.8 nM; in series [3], 1.6 nM; in series [4], 0.5 nM; in series [7] it was 4.7 nM. Further, the IC50 in series [6] (Homo sapiens, A-431) is 700 nM.
For `Cc1cc2cc(n1)-c1cnc(F)cc1OCCC[C@@H](C)Cn1c(nc3ccc(N4CCC5(CC4)CCN(C4COC4)CC5)cc31)NC2=O` [Example 81, (R)-1^6-fluoro-2^6,7-dimethyl-5^6-(9-(oxetan-3-yl)-3,9-diazaspiro [5.5]undecan-3-yl)-5^1H-11-oxa-4-aza-5(2,1)-benzo[d] imidazola-1(3,4),2(2,4)-dipyridinacyclo-undecaphan-3-one], the GI50 came to 1.4 nM in series [2], 4.3 nM in series [3], 0.1 nM in series [4] and 5.3 nM in series [7]. In addition, the AUC(0-t) in series [5] (rat, po) was 1840 ng·h/mL. In series [5] (rat, po), this compound had a half-life of 18.8 h. The Cmax in series [5] (rat, po, read-out: Cmax) stood at 116 ng/mL. This compound displayed an IC50 in series [6] (Homo sapiens, A-431) of 1750 nM.
On to `Cc1cc2cc(n1)-c1cnccc1OCCCCCn1c(nc3ccc(N4CCC5(CCN(CCN(C)C)CC5)CC4)cc31)NC2=O` [Example 87, 5^6-(9-(2-(dimethyl-amino)ethyl)-3,9-diazaspiro [5.5]undecan-3-yl)-2^6-methyl-5^1H-11-oxa-4-aza-5(2,1)-benzo [d]imidazola-1(3,4),2(2,4)-dipyridinacyclo-undecaphan-3-one], for which the GI50 was 5.4 nM in series [2], 11 nM in series [3], 5.8 nM in series [4] and 21 nM in series [7]. The same compound gave an IC50 in series [6] (Homo sapiens, A-431) of 1410 nM.
Take `Cc1cc2cc(n1)-c1cnccc1OCCCCCn1c(nc3ccc(N4CCC5(CC4)CCN(C4CC4)CC5)cc31)NC2=O` [Example 89, 5^6-(9-cyclopropyl-3,9-diazaspiro [5.5]undecan-3-yl)-2^6-methyl-5^1H-11-oxa-4-aza-5(2,1)-benzo[d] imidazola-1(3,4),2(2,4)-dipyridinacyclo-undecaphan-3-one]: the GI50 in series [2] came to 1.8 nM; in series [3], 4.6 nM; in series [4] it was 0.71 nM; in series [7] it was 6.5 nM. Moreover, half-maximal inhibition in series [6] (Homo sapiens, A-431) (IC50) required 1210 nM.
Regarding `COC(C)(C)CC(C)N1CCC2(CCN(c3ccc4nc5n(c4c3)CCCCCOc3ccncc3-c3cc(cc(C)n3)C(=O)N5)CC2)CC1` (stereo not drawn) [Example 90, 5^6-(9-(4-methoxy-4-methylpentan-2-yl)-3,9-diazaspiro[5.5]undecan-3-yl)-2^6-methyl-5^1H-11-oxa-4-aza-5(2,1)-benzo[d] imidazola-1(3,4),2(2,4)-dipyridinacyclo-undecaphan-3-one], the GI50 in series [2] stood at 4.2 nM; in series [3] it was 12 nM; in series [4] it was 4 nM; in series [7], 31 nM. For the same compound, the IC50 in series [6] (Homo sapiens, A-431) was 733 nM.
For the compound `Cc1cc2cc(n1)-c1cnn(C)c1OCCC[C@@H](C)CN1/C(=N/C2=O)Nc2ccc(CN3CCN(C)CC3)cc21` [compound 1, reference compound], the AUC(0-t) came to 361 ng·h/mL in series [1] (mouse, po) and 96 ng·h/mL in series [5] (rat, po). Also, the half-life was 4.22 h in series [1] (mouse, po) and 2.94 h in series [5] (rat, po). Also, the Cmax in series [1] (mouse, po, read-out: Cmax) amounted to 32.8 ng/mL; in series [5] (rat, po, read-out: Cmax), 10.5 ng/mL.
Compound `Cc1cc2cc(n1)-c1cnn(C)c1OCCC[C@@H](C)CN1/C(=N/C2=O)Nc2ccc(CN3CCC4(CC3)COC4)cc21` [compound 2, reference compound] registered an AUC(0-t) in series [5] (rat, po) of 132 ng·h/mL. Moreover, in series [5] (rat, po, read-out: Cmax), the Cmax was 27.3 ng/mL.
